In the CheMixHub viscosity set:
± gives the uncertainty stated by the source.

Assay: xn = mol fraction of the nth substance listed

Compound `C1CCCCC1` + CCCO has a viscosity (298.15 K, 100 kPa, x2 = 0.0547) of 0.8988 ± 0.11 mPa·s, a viscosity (298.15 K, 100 kPa, x2 = 0.1077) of 0.9091 ± 0.11 mPa·s and a viscosity (298.15 K, 100 kPa, x2 = 0.1968) of 0.9202 ± 0.11 mPa·s. For the same compound, the viscosity (298.15 K, 100 kPa, x2 = 0.3164) was 0.9358 ± 0.11 mPa·s, the viscosity (298.15 K, 100 kPa, x2 = 0.4278) was 1.013 ± 0.12 mPa·s and the viscosity (298.15 K, 100 kPa, x2 = 0.6293) was 1.243 ± 0.15 mPa·s. It also gave a viscosity (298.15 K, 100 kPa, x2 = 0.8064) of 1.502 ± 0.18 mPa·s, a viscosity (298.15 K, 100 kPa, x2 = 0.8873) of 1.626 ± 0.2 mPa·s and a viscosity (298.15 K, 101 kPa, x2 = 0.0166) of 0.873 ± 0.008 mPa·s. The viscosity (298.15 K, 101 kPa, x2 = 0.0647) was 0.865 ± 0.008 mPa·s, the viscosity (298.15 K, 101 kPa, x2 = 0.1219) was 0.867 ± 0.008 mPa·s and the viscosity (298.15 K, 101 kPa, x2 = 0.2231) was 0.889 ± 0.009 mPa·s. It also gave a viscosity (298.15 K, 101 kPa, x2 = 0.3207) of 0.946 ± 0.009 mPa·s, a viscosity (298.15 K, 101 kPa, x2 = 0.3805) of 0.994 ± 0.01 mPa·s and a viscosity (298.15 K, 101 kPa, x2 = 0.7039) of 1.371 ± 0.013 mPa·s. It also gave a viscosity (298.15 K, 101 kPa, x2 = 0.8023) of 1.529 ± 0.014 mPa·s, a viscosity (303.15 K, 101 kPa, x2 = 0.6491) of 1.1 ± 0.11 mPa·s and a viscosity (303.15 K, 101.33 kPa, x2 = 0.109) of 0.8411 ± 0.011 mPa·s. The viscosity (303.15 K, 101.33 kPa, x2 = 0.208) was 0.8728 ± 0.011 mPa·s, the viscosity (303.15 K, 101.33 kPa, x2 = 0.3385) was 0.9327 ± 0.012 mPa·s and the viscosity (303.15 K, 101.33 kPa, x2 = 0.4215) was 0.9852 ± 0.012 mPa·s. For the same compound, the viscosity (303.15 K, 101.33 kPa, x2 = 0.6115) was 1.141 ± 0.014 mPa·s, the viscosity (303.15 K, 101.33 kPa, x2 = 0.708) was 1.237 ± 0.015 mPa·s and the viscosity (303.15 K, 101.33 kPa, x2 = 0.8094) was 1.37 ± 0.017 mPa·s. The viscosity (308.15 K, 100 kPa, x2 = 0.0547) was 0.718 ± 0.086 mPa·s, the viscosity (308.15 K, 100 kPa, x2 = 0.1077) was 0.7248 ± 0.087 mPa·s and the viscosity (308.15 K, 100 kPa, x2 = 0.1968) was 0.7355 ± 0.088 mPa·s. The viscosity (308.15 K, 100 kPa, x2 = 0.3164) was 0.7941 ± 0.096 mPa·s, the viscosity (308.15 K, 100 kPa, x2 = 0.4278) was 0.8335 ± 0.1 mPa·s and the viscosity (308.15 K, 100 kPa, x2 = 0.5319) was 0.8971 ± 0.11 mPa·s. It also gave a viscosity (308.15 K, 100 kPa, x2 = 0.6293) of 0.9922 ± 0.12 mPa·s, a viscosity (308.15 K, 100 kPa, x2 = 0.7206) of 1.095 ± 0.13 mPa·s and a viscosity (308.15 K, 100 kPa, x2 = 0.8064) of 1.203 ± 0.14 mPa·s. The viscosity (308.15 K, 100 kPa, x2 = 0.8873) was 1.317 ± 0.16 mPa·s, the viscosity (308.15 K, 100 kPa, x2 = 0.9635) was 1.491 ± 0.18 mPa·s and the viscosity (308.15 K, 101 kPa, x2 = 0.0166) was 0.736 ± 0.007 mPa·s. It also gave a viscosity (308.15 K, 101 kPa, x2 = 0.0647) of 0.73 ± 0.007 mPa·s, a viscosity (308.15 K, 101 kPa, x2 = 0.1219) of 0.732 ± 0.007 mPa·s and a viscosity (308.15 K, 101 kPa, x2 = 0.2231) of 0.746 ± 0.007 mPa·s. It also gave a viscosity (308.15 K, 101 kPa, x2 = 0.3207) of 0.782 ± 0.008 mPa·s, a viscosity (308.15 K, 101 kPa, x2 = 0.3805) of 0.818 ± 0.008 mPa·s and a viscosity (308.15 K, 101 kPa, x2 = 0.4203) of 0.845 ± 0.008 mPa·s. For the same compound, the viscosity (308.15 K, 101 kPa, x2 = 0.6491) was 1.022 ± 0.11 mPa·s, the viscosity (308.15 K, 101 kPa, x2 = 0.7039) was 1.099 ± 0.011 mPa·s and the viscosity (308.15 K, 101 kPa, x2 = 0.8023) was 1.218 ± 0.012 mPa·s. For the same compound, the viscosity (313.15 K, 101 kPa, x2 = 0.6491) was 0.9392 ± 0.097 mPa·s, the viscosity (318.15 K, 101 kPa, x2 = 0.0166) was 0.634 ± 0.006 mPa·s and the viscosity (318.15 K, 101 kPa, x2 = 0.0647) was 0.626 ± 0.006 mPa·s. It also gave a viscosity (318.15 K, 101 kPa, x2 = 0.1219) of 0.624 ± 0.006 mPa·s, a viscosity (318.15 K, 101 kPa, x2 = 0.2231) of 0.634 ± 0.006 mPa·s and a viscosity (318.15 K, 101 kPa, x2 = 0.3207) of 0.66 ± 0.007 mPa·s. The viscosity (318.15 K, 101 kPa, x2 = 0.3805) was 0.683 ± 0.007 mPa·s, the viscosity (318.15 K, 101 kPa, x2 = 0.4203) was 0.706 ± 0.007 mPa·s and the viscosity (318.15 K, 101 kPa, x2 = 0.7039) was 0.896 ± 0.009 mPa·s. For the same compound, the viscosity (318.15 K, 101 kPa, x2 = 0.8023) was 0.992 ± 0.01 mPa·s.
For `COC(C)=O` + CCCO, the viscosity (298.15 K, 101 kPa, x1 = 0.0464) was 1.587 ± 0.014 mPa·s, the viscosity (298.15 K, 101 kPa, x1 = 0.0999) was 1.295 ± 0.012 mPa·s and the viscosity (298.15 K, 101 kPa, x1 = 0.1992) was 1.001 ± 0.009 mPa·s. It also gave a viscosity (298.15 K, 101 kPa, x1 = 0.3035) of 0.794 ± 0.008 mPa·s, a viscosity (298.15 K, 101 kPa, x1 = 0.4028) of 0.654 ± 0.006 mPa·s and a viscosity (298.15 K, 101 kPa, x1 = 0.5088) of 0.555 ± 0.006 mPa·s. It also gave a viscosity (298.15 K, 101 kPa, x1 = 0.5545) of 0.52 ± 0.005 mPa·s, a viscosity (298.15 K, 101 kPa, x1 = 0.6022) of 0.49 ± 0.005 mPa·s and a viscosity (298.15 K, 101 kPa, x1 = 0.7037) of 0.439 ± 0.005 mPa·s. It also gave a viscosity (298.15 K, 101 kPa, x1 = 0.7973) of 0.401 ± 0.004 mPa·s, a viscosity (298.15 K, 101 kPa, x1 = 0.8988) of 0.39 ± 0.004 mPa·s and a viscosity (298.15 K, 101 kPa, x1 = 0.9458) of 0.379 ± 0.004 mPa·s. The viscosity (298.15 K, 101 kPa, x2 = 0.1056) was 0.375 ± 0.006 mPa·s, the viscosity (298.15 K, 101 kPa, x2 = 0.1987) was 0.399 ± 0.006 mPa·s and the viscosity (298.15 K, 101 kPa, x2 = 0.298) was 0.432 ± 0.006 mPa·s. The viscosity (298.15 K, 101 kPa, x2 = 0.3999) was 0.483 ± 0.006 mPa·s, the viscosity (298.15 K, 101 kPa, x2 = 0.5012) was 0.55 ± 0.007 mPa·s and the viscosity (298.15 K, 101 kPa, x2 = 0.5963) was 0.644 ± 0.007 mPa·s. The viscosity (298.15 K, 101 kPa, x2 = 0.6991) was 0.793 ± 0.008 mPa·s, the viscosity (298.15 K, 101 kPa, x2 = 0.7989) was 1.014 ± 0.009 mPa·s and the viscosity (298.15 K, 101 kPa, x2 = 0.8845) was 1.306 ± 0.011 mPa·s. It also gave a viscosity (298.15 K, 101.33 kPa, x1 = 0.0504) of 1.667 ± 0.055 mPa·s, a viscosity (298.15 K, 101.33 kPa, x1 = 0.1935) of 1.074 ± 0.036 mPa·s and a viscosity (298.15 K, 101.33 kPa, x1 = 0.3023) of 0.817 ± 0.028 mPa·s. It also gave a viscosity (298.15 K, 101.33 kPa, x1 = 0.4167) of 0.654 ± 0.023 mPa·s, a viscosity (298.15 K, 101.33 kPa, x1 = 0.5497) of 0.544 ± 0.02 mPa·s and a viscosity (298.15 K, 101.33 kPa, x1 = 0.6021) of 0.509 ± 0.019 mPa·s. It also gave a viscosity (298.15 K, 101.33 kPa, x1 = 0.6703) of 0.48 ± 0.018 mPa·s, a viscosity (298.15 K, 101.33 kPa, x1 = 0.7809) of 0.439 ± 0.017 mPa·s and a viscosity (298.15 K, 101.33 kPa, x1 = 0.8648) of 0.409 ± 0.016 mPa·s. It also gave a viscosity (313.15 K, 101 kPa, x1 = 0.0464) of 1.153 ± 0.011 mPa·s, a viscosity (313.15 K, 101 kPa, x1 = 0.0999) of 0.965 ± 0.009 mPa·s and a viscosity (313.15 K, 101 kPa, x1 = 0.1992) of 0.769 ± 0.007 mPa·s. The viscosity (313.15 K, 101 kPa, x1 = 0.3035) was 0.626 ± 0.006 mPa·s, the viscosity (313.15 K, 101 kPa, x1 = 0.4028) was 0.529 ± 0.005 mPa·s and the viscosity (313.15 K, 101 kPa, x1 = 0.5088) was 0.458 ± 0.005 mPa·s. It also gave a viscosity (313.15 K, 101 kPa, x1 = 0.5545) of 0.433 ± 0.005 mPa·s, a viscosity (313.15 K, 101 kPa, x1 = 0.6022) of 0.411 ± 0.004 mPa·s and a viscosity (313.15 K, 101 kPa, x1 = 0.7037) of 0.375 ± 0.004 mPa·s. For the same compound, the viscosity (313.15 K, 101 kPa, x1 = 0.7973) was 0.346 ± 0.004 mPa·s, the viscosity (313.15 K, 101 kPa, x1 = 0.8988) was 0.341 ± 0.004 mPa·s and the viscosity (313.15 K, 101 kPa, x1 = 0.9458) was 0.332 ± 0.004 mPa·s.
